Broadly, the half-life is the time needed for the level to fall by half in the phase considered. Higher therefore signals slow loss. In general, Cmax refers to the maximum level reached in the sampled fluid or tissue.

The structures appear in SMILES notation. Read-outs that look alike come from different tables or passages of the source. Bridge positions count the residues as written; N and C are the ends. Square brackets hold non-standard residues; d marks the D form. Peptide text beside a SMILES is read from it. * marks the point of attachment. Heptanoyl(6-Me) = CC(C)CCCCC(=O)*; X1 = CC[C@H](C)CCCCC(=O)*; Dab = NCC[C@H](N)C(=O)O

For series [1] the following is noted: human, in vivo.
Series [2] is described as follows: Polymyxin B1 and B2 plasma levels in further patient samples. Particulars: human, in vivo, iv.
Series [3] is classed as in vitro ADME. The settings on record: human EDTA plasma QC samples.

Molecule `CC(C)CCCCC(=O)N[C@@H](CCN)C(=O)N[C@H](C(=O)N[C@@H](CCN)C(=O)N[C@H]1CCNC(=O)[C@H]([C@@H](C)O)NC(=O)[C@H](CCN)NC(=O)[C@H](CCN)NC(=O)[C@H](CC(C)C)NC(=O)[C@@H](Cc2ccccc2)NC(=O)[C@H](CCN)NC1=O)[C@@H](C)O` [polymyxin B2] ({Heptanoyl(6-Me)}-[Dab]T[Dab][Dab][Dab][dF]L[Dab][Dab]T; lactam 4-C) gave a half-life in series [1] (female, iv) of 5.4 h. In series [1] (female, iv, 1.5 mg/kg), this molecule yielded a level at 0 h of 252 ng/mL and a level at 12 h of 214 ng/mL. In addition, in series [1], the “Ratio of polymyxin B2 to polymyxin B1+polymyxin B2 in plasma, mean” value worked out at 0.15 and the “Ratio of polymyxin B2 to polymyxin B1+polymyxin B2 in plasma, range” value is recorded as 0.13-0.16. In series [2], the “Plasma concentration of the patient sample of Figure 1E/F” value was 322 ng/mL.

In series [1] (female, iv, 1.5 mg/kg), `CC[C@H](C)CCCCC(=O)N[C@@H](CCN)C(=O)N[C@H](C(=O)N[C@@H](CCN)C(=O)N[C@H]1CCNC(=O)[C@H]([C@@H](C)O)NC(=O)[C@H](CCN)NC(=O)[C@H](CCN)NC(=O)[C@H](CC(C)C)NC(=O)[C@@H](Cc2ccccc2)NC(=O)[C@H](CCN)NC1=O)[C@@H](C)O` [polymyxin B1] (X1-[Dab]T[Dab][Dab][Dab][dF]L[Dab][Dab]T; lactam 4-C) showed a Cmax of 4830 ng/mL, a half-life of 4.7 h, a level at 0 h of 1400 ng/mL and a level at 12 h of 1080 ng/mL. Moreover, the “Stability during repetitive freeze-thaw cycles” value in series [3] is on record as “at least three repetitive freeze-thaw cycles”. In series [3] (4°C), the “Time stable at 4°C” value is listed as “at least 72 h”. Also, in series [3] (22°C), the “Time stable at room temperature” value is “at least 24 h”. The “Time stable at −80°C” value in series [3] (−80°C) is “at least 3 months”.

For the origin of these results see article PMC3394890 (Therapeutic Drug Monitoring, 2012).
